The results in this text go back to PubChem BioAssay (NCI).

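Step 1: Grow cells in 96-well plates. Step 2: Expose to compound for 48 hours at 5 concentrations. Step 3: Interpolate endpoints linearly; if unreached, use highest concentration. TGI: total growth inhibition.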 Some results are limits rather than exact numbers.

Some test systems named below: ACHN renal; CCRF-CEM leukemia; DU-145 prostate; EKVX NSCLC; HL-60(TB) leukemia; HOP-62 NSCLC; HT29 colon; KM12 colon; M14 melanoma; NCI-H23 lung; OVCAR-8 ovarian; RPMI-8226 leukemia; SF-268 CNS; SF-295 CNS; SNB-75 CNS; SW-620 colon; UO-31 renal; MDA-N.
Common to all, as to assay: NCI-60 cell line screen, 48 h

`Cn1c(-c2cccc([N+](=O)[O-])c2)[n+](C)c2ccccc21`: the TGI with ACHN renal, in the experiment on CCRF-CEM leukemia, in the experiment on DU-145 prostate, in the experiment on EKVX NSCLC, with HL-60(TB) leukemia and in the experiment on HOP-62 NSCLC was more than 100 µM each time. The TGI in the experiment on HT29 colon, in the experiment with KM12 colon, in the experiment with M14 melanoma, in the experiment on NCI-H23 lung, in the experiment on OVCAR-8 ovarian and in the experiment on RPMI-8226 leukemia was more than 100 µM each time. In addition, the TGI in the experiment with SF-268 CNS, in the experiment on SF-295 CNS, in the experiment with SNB-75 CNS, with SW-620 colon and in the experiment with UO-31 renal was more than 100 µM in each case.

Take `Cc1cc2c([nH]c3ccccc32)c2c1OC(C)(C)C1C3CC(C)(C)Oc4c(C)cc5c6ccccc6n(c5c43)C21` (centres undefined): the TGI with ACHN renal, in the experiment on CCRF-CEM leukemia, with EKVX NSCLC, in the experiment with HL-60(TB) leukemia, in the experiment with HOP-62 NSCLC and in the experiment on HT29 colon was more than 100 µM each time. Besides, the TGI in the experiment with KM12 colon, in the experiment on M14 melanoma, with NCI-H23 lung, with OVCAR-8 ovarian, in the experiment with RPMI-8226 leukemia and in the experiment on SF-268 CNS was more than 100 µM each time. Moreover, the TGI in the experiment on SF-295 CNS, in the experiment with SNB-75 CNS, in the experiment with SW-620 colon and with UO-31 renal was more than 100 µM throughout.

Regarding `CC(=O)O[C@H]1C(=O)[C@@]2(C)C(C(OC(=O)c3ccccc3)C3[C@@H](O)C(OC(=O)[C@@H](O)[C@H](NC(=O)c4ccccc4)c4ccc(C(F)(F)F)cc4)C(C)=C1C3(C)C)[C@]1(OC(C)=O)CO[C@@H]1C[C@@H]2O` (some centres undefined), the TGI with ACHN renal, in the experiment on CCRF-CEM leukemia, with EKVX NSCLC, with HL-60(TB) leukemia, in the experiment with HOP-62 NSCLC and with HT29 colon was more than 25 µM each time. In addition, the TGI with M14 melanoma, with NCI-H23 lung, in the experiment with OVCAR-8 ovarian, with RPMI-8226 leukemia, with SF-268 CNS and with SF-295 CNS was more than 25 µM in each case. The TGI in the experiment with SNB-75 CNS, with SW-620 colon and in the experiment with UO-31 renal was more than 25 µM in each case.

As for `COc1ccc(/C=C2\CCC(C)C3=C2N=c2s/c(=C/c4cccc(Br)c4)c(=O)n2C3c2ccc(OC)c(OC)c2)cc1OC` (centres undefined), the TGI with ACHN renal, in the experiment on CCRF-CEM leukemia, in the experiment with DU-145 prostate, with EKVX NSCLC, with HL-60(TB) leukemia and in the experiment with HOP-62 NSCLC was more than 100 µM throughout. Also, the TGI in the experiment with HT29 colon, in the experiment on KM12 colon, in the experiment on M14 melanoma, in the experiment on MDA-N, in the experiment with OVCAR-8 ovarian and with RPMI-8226 leukemia was more than 100 µM throughout. Besides, the TGI in the experiment with SF-268 CNS and in the experiment on SW-620 colon was more than 100 µM each time.

`CCCC(=O)OC1C(CO)OC(n2cc(F)c(=O)[nH]c2=O)C1F` (centres undefined): the TGI with ACHN renal, with CCRF-CEM leukemia, in the experiment on DU-145 prostate, in the experiment with EKVX NSCLC, with HL-60(TB) leukemia and in the experiment on HOP-62 NSCLC was more than 100 µM in each case. Also, the TGI in the experiment with HT29 colon, in the experiment on KM12 colon, in the experiment on NCI-H23 lung, in the experiment on OVCAR-8 ovarian, with RPMI-8226 leukemia and with SF-295 CNS was more than 100 µM throughout. In addition, the TGI in the experiment with SNB-75 CNS, with SW-620 colon and with UO-31 renal was more than 100 µM each time.

With `CCOc1ccc2nc(NC(=O)C(=O)C(c3cnc4ccccc4n3)[N+](=O)[O-])sc2c1` (centres undefined), the TGI in the experiment with ACHN renal, with CCRF-CEM leukemia, with EKVX NSCLC, in the experiment with HL-60(TB) leukemia, with HOP-62 NSCLC and in the experiment with HT29 colon was more than 100 µM each time. The TGI in the experiment on KM12 colon, in the experiment with M14 melanoma, in the experiment with MDA-N, with NCI-H23 lung, in the experiment with OVCAR-8 ovarian and with RPMI-8226 leukemia was more than 100 µM in each case. The TGI in the experiment on SF-268 CNS, with SF-295 CNS, in the experiment on SNB-75 CNS and with UO-31 renal was more than 100 µM in each case.

Turning to `CN(C)c1nc(Cl)c2c(-c3ccccc3)c(-c3ccccc3)oc2n1`, the TGI in the experiment with ACHN renal is more than 100 µM; in the experiment with CCRF-CEM leukemia it was more than 100 µM; with DU-145 prostate it was more than 100 µM; with EKVX NSCLC, more than 100 µM; with HL-60(TB) leukemia, 36 µM; with HT29 colon it was more than 100 µM. In addition, the TGI in the experiment with KM12 colon was more than 100 µM; in the experiment on M14 melanoma, more than 100 µM; in the experiment with NCI-H23 lung, more than 100 µM; in the experiment on OVCAR-8 ovarian it was more than 100 µM; in the experiment with RPMI-8226 leukemia it was 60.8 µM; in the experiment on SF-268 CNS it was more than 100 µM. Further, the TGI with SF-295 CNS, in the experiment on SNB-75 CNS, in the experiment on SW-620 colon and in the experiment with UO-31 renal was more than 100 µM throughout.

For the molecule `CCC(C#N)NCc1cccc(CNC(C#N)CC)c1` (centres undefined), the TGI with ACHN renal, in the experiment with CCRF-CEM leukemia, with DU-145 prostate, in the experiment on EKVX NSCLC, in the experiment on HL-60(TB) leukemia and in the experiment with HT29 colon was more than 100 µM each time. The TGI with KM12 colon was more than 100 µM; in the experiment on M14 melanoma it was 31.4 µM; with MDA-N, more than 100 µM; in the experiment with NCI-H23 lung it was more than 100 µM; with OVCAR-8 ovarian, more than 100 µM; in the experiment on SF-268 CNS, more than 100 µM. Further, the values for the TGI with SF-295 CNS, in the experiment with SW-620 colon and in the experiment on UO-31 renal were 33.7 µM, more than 100 µM and more than 100 µM, respectively.
